Measurements as given in BindingDB's records for doi:10.1021/jm00046a026 (Virginia Commonwealth University, 1994).

Experiments:
[1] = Inhibition against kappa receptor from displacement studies using 1.5 nM [3H]U-69593 in rhesus monkey cortex membrane
[2] = Inhibition against mu receptor from displacement studies using 0.5 nM [3H]-DAMGO in rhesus monkey cortex membrane
[3] = Inhibition against sigma receptor using displacement of 3 nM [3H]pentazocine in homogenate of guinea pig brain cerebellum
[4] = Inhibition against delta receptor from displacement studies using 1.5 nM [3H]DPDPE in rhesus monkey cortex membrane

SMILES | Ki [1] | Ki [2] | Ki [3] | Ki [4]
C[C@@H]1C2Cc3ccc(O)cc3[C@]1(C)CCN2C [(6R,11S)-3,6,11-Trimethyl-1,2,3,4,5,6-hexahydro-2,6-methano-benzo[d]azocin-8-ol] | 3780 nM | 1380 nM | 1330 nM | 7000 nM
CCCCN1CC[C@@]2(C)c3cc(O)ccc3CC1[C@H]2C [(6R,11S)-3-Butyl-6,11-dimethyl-1,2,3,4,5,6-hexahydro-2,6-methano-benzo[d]azocin-8-ol] | 783 nM | 1240 nM | 6 nM | 7000 nM
CCN1CC[C@@]2(C)c3cc(O)ccc3CC1[C@H]2C [(6R,11S)-3-Ethyl-6,11-dimethyl-1,2,3,4,5,6-hexahydro-2,6-methano-benzo[d]azocin-8-ol] | 3780 nM |  | 1090 nM | 7000 nM
CCCCCCN1CC[C@@]2(C)c3cc(O)ccc3CC1[C@H]2C [(6R,11S)-3-Hexyl-6,11-dimethyl-1,2,3,4,5,6-hexahydro-2,6-methano-benzo[d]azocin-8-ol] | 2260 nM | 318 nM | 2.3 nM | 
C[C@@H]1C2Cc3ccc(O)cc3[C@]1(C)CCN2 [(6R,11S)-6,11-Dimethyl-1,2,3,4,5,6-hexahydro-2,6-methano-benzo[d]azocin-8-ol] | 3780 nM | 1720 nM | 2730 nM | 7000 nM
CCCCCN1CC[C@@]2(C)c3cc(O)ccc3CC1[C@H]2C [(6R,11S)-6,11-Dimethyl-3-pentyl-1,2,3,4,5,6-hexahydro-2,6-methano-benzo[d]azocin-8-ol] | 738 nM | 776 nM |  | 7000 nM
CCCN1CC[C@@]2(C)c3cc(O)ccc3CC1[C@H]2C [(6R,11S)-6,11-Dimethyl-3-propyl-1,2,3,4,5,6-hexahydro-2,6-methano-benzo[d]azocin-8-ol] | 452 nM | 943 nM | 43 nM | 7000 nM
C[C@H]1C2Cc3ccc(O)cc3[C@@]1(C)CCN2C [(6S,11R)-3,6,11-Trimethyl-1,2,3,4,5,6-hexahydro-2,6-methano-benzo[d]azocin-8-ol] | 17 nM | 4.2 nM | 18100 nM | 152 nM
CCCCN1CC[C@]2(C)c3cc(O)ccc3CC1[C@@H]2C [(6S,11R)-3-Butyl-6,11-dimethyl-1,2,3,4,5,6-hexahydro-2,6-methano-benzo[d]azocin-8-ol] | 4.9 nM | 3.4 nM | 104 nM | 78 nM
CCCCCCCCCCN1CC[C@]2(C)c3cc(O)ccc3CC1[C@@H]2C [(6S,11R)-3-Decyl-6,11-dimethyl-1,2,3,4,5,6-hexahydro-2,6-methano-benzo[d]azocin-8-ol] | 2260 nM | 997 nM | 38 nM | 2580 nM
CCN1CC[C@]2(C)c3cc(O)ccc3CC1[C@@H]2C [(6S,11R)-3-Ethyl-6,11-dimethyl-1,2,3,4,5,6-hexahydro-2,6-methano-benzo[d]azocin-8-ol] | 16 nM | 16 nM | 16600 nM | 158 nM
CCCCCCCN1CC[C@]2(C)c3cc(O)ccc3CC1[C@@H]2C [(6S,11R)-3-Heptyl-6,11-dimethyl-1,2,3,4,5,6-hexahydro-2,6-methano-benzo[d]azocin-8-ol] | 32 nM | 27 nM | 49 nM | 57 nM
CCCCCCN1CC[C@]2(C)c3cc(O)ccc3CC1[C@@H]2C [(6S,11R)-3-Hexyl-6,11-dimethyl-1,2,3,4,5,6-hexahydro-2,6-methano-benzo[d]azocin-8-ol] | 43 nM | 39 nM | 40 nM | 67 nM
C[C@H]1C2Cc3ccc(O)cc3[C@@]1(C)CCN2 [(6S,11R)-6,11-Dimethyl-1,2,3,4,5,6-hexahydro-2,6-methano-benzo[d]azocin-8-ol] | 113 nM |  | 6750 nM | 449 nM
CCCCCCCCCN1CC[C@]2(C)c3cc(O)ccc3CC1[C@@H]2C [(6S,11R)-6,11-Dimethyl-3-nonyl-1,2,3,4,5,6-hexahydro-2,6-methano-benzo[d]azocin-8-ol] | 709 nM | 183 nM | 32 nM | 464 nM
CCCCCCCCN1CC[C@]2(C)c3cc(O)ccc3CC1[C@@H]2C [(6S,11R)-6,11-Dimethyl-3-octyl-1,2,3,4,5,6-hexahydro-2,6-methano-benzo[d]azocin-8-ol] | 77 nM | 59 nM | 35 nM | 114 nM
CCCCCN1CC[C@]2(C)c3cc(O)ccc3CC1[C@@H]2C [(6S,11R)-6,11-Dimethyl-3-pentyl-1,2,3,4,5,6-hexahydro-2,6-methano-benzo[d]azocin-8-ol] | 23 nM | 15 nM |  | 98 nM
CCCN1CC[C@]2(C)c3cc(O)ccc3CC1[C@@H]2C [(6S,11R)-6,11-Dimethyl-3-propyl-1,2,3,4,5,6-hexahydro-2,6-methano-benzo[d]azocin-8-ol] | 2 nM | 1.5 nM | 739 nM | 37 nM
CCCCCCCCCCN1CC[C@]2(C)c3cc(O)ccc3CC1[C@H]2C [(6S,11S)-3-Decyl-6,11-dimethyl-1,2,3,4,5,6-hexahydro-2,6-methano-benzo[d]azocin-8-ol] | 2260 nM | 756 nM | 69 nM | 
CCCCCCCN1CC[C@]2(C)c3cc(O)ccc3CC1[C@H]2C [(6S,11S)-3-Heptyl-6,11-dimethyl-1,2,3,4,5,6-hexahydro-2,6-methano-benzo[d]azocin-8-ol] | 723 nM | 259 nM | 1.9 nM | 7000 nM
CCCCCCCCCN1CC[C@]2(C)c3cc(O)ccc3CC1[C@H]2C [(6S,11S)-6,11-Dimethyl-3-nonyl-1,2,3,4,5,6-hexahydro-2,6-methano-benzo[d]azocin-8-ol] | 2260 nM | 126 nM | 12 nM | 2930 nM
CCCCCCCCN1CC[C@]2(C)c3cc(O)ccc3CC1[C@H]2C [(6S,11S)-6,11-Dimethyl-3-octyl-1,2,3,4,5,6-hexahydro-2,6-methano-benzo[d]azocin-8-ol] | 2260 nM | 160 nM | 2.8 nM | 1590 nM
